Patent publication US12606552B2, “Bifunctional compound, preparation method therefor, and use thereof” (SUZHOU KINTOR PHARMACEUTICALS, INC., priority 2020, dated 2026)

Target: T1, AR (Homo sapiens, UniProt P10275, T878A)
T1 sequence (P10275 1-920 T878A): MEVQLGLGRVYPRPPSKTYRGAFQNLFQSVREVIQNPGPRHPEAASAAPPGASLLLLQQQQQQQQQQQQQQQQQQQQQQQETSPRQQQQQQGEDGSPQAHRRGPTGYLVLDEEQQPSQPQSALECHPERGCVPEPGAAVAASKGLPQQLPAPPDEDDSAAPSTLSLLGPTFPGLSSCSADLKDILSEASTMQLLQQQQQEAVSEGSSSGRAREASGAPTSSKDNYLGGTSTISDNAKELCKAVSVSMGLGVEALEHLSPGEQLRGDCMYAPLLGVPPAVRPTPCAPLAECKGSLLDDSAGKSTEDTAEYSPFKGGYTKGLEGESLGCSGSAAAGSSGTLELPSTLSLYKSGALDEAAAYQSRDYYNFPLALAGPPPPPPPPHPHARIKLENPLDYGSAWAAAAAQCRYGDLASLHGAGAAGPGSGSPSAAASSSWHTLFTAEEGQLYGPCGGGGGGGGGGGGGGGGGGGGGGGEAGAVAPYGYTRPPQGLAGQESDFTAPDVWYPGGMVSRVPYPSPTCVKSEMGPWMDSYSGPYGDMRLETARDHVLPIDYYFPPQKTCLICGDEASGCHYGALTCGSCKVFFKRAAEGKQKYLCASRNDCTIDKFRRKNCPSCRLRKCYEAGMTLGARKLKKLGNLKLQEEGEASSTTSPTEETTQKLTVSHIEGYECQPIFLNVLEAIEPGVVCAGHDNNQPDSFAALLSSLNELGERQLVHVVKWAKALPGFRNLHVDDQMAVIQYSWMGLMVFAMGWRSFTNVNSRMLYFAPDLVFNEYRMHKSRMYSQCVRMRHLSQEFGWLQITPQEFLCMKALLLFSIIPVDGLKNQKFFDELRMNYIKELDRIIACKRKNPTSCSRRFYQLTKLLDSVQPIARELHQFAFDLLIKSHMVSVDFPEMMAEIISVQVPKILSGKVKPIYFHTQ
Test: Effects of compounds on AR expression in LNCaP cells (ELISA, DC50)
Type: cell-based
Set-up: Measurement of the Effects of Drugs on the Expression of AR in Cells by ELISA Method; endogenous in cells; host or cells: LNCaP
Conditions: 24 hours of drug treatment, AR by ELISA
Procedure, shortened: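 LNCaP cells at about 15,000/well were treated for 24 h with compound at 0.0001–2 μmol/L final. AR in cell lysates was measured by ELISA (OD450). Inhibition was relative to DMSO control after blank subtraction, and DC50 was calculated from it.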

| Compound | DC50 [nM] |
| --- | --- |
| CC(C)(C)[C@H](NC(=O)COCCCCOc1ccc(-c2ccc(N3C(=S)N(c4ccc(C#N)c(C(F)(F)F)c4F)C(=O)C3(C)C)cn2)cc1)C(=O)N1C[C@H](O)C[C@H]1c1nc(-c2cccs2)c[nH]1 [Compound A209] | 856 |
| CC(C)(C)[C@H](NC(=O)COCCCCOc1ccc(-c2ncc(N3C(=S)N(c4ccc(C#N)c(C(F)(F)F)c4F)C(=O)C3(C)C)cc2F)c(C(F)(F)F)c1)C(=O)N1C[C@H](O)C[C@H]1c1nc(-c2cccs2)c[nH]1 [Compound A210] | 834 |
| CC(C)(C)[C@H](NC(=O)COCCCCOc1ccc(-c2ccc(N3C(=S)N(c4ccc(C#N)c(C(F)(F)F)c4F)C(=O)C3(C)C)cn2)cc1)C(=O)N1C[C@H](O)C[C@H]1c1nc(-c2cccnc2)c[nH]1 [Compound A214] | 173 |
| COc1c(C#N)ccc(N2C(=O)C(C)(C)N(c3cnc(-c4ccc(OCCCCOCC(=O)N[C@H](C(=O)N5C[C@H](O)C[C@H]5C(=O)NCc5ccc(-c6scnc6C)cc5)C(C)(C)C)c(F)c4)c(F)c3)C2=S)c1F [Compound A215] | 83.1 |
| CC(C)(C)[C@H](NC(=O)COCCCCOc1ccc(-c2ncc(N3C(=S)N(c4ccc(C#N)c(C(F)(F)F)c4F)C(=O)C3(C)C)cc2F)c(C(F)(F)F)c1)C(=O)N1C[C@H](O)C[C@H]1C(=O)NCc1cnco1 [Compound A219] | 589 |
| Cc1ncsc1-c1cn(C)c([C@@H]2C[C@@H](O)CN2C(=O)[C@@H](NC(=O)COCCCCOc2ccc(-c3ccc(N4C(=S)N(c5ccc(C#N)c(C(F)(F)F)c5F)C(=O)C4(C)C)cn3)cc2)C(C)(C)C)n1 [Compound A220] | 289 |
| Cc1ncsc1-c1cn(C)c([C@@H]2C[C@@H](O)CN2C(=O)[C@@H](NC(=O)COCCCCOc2ccc(-c3ncc(N4C(=S)N(c5ccc(C#N)c(C(F)(F)F)c5F)C(=O)C4(C)C)cc3F)c(C(F)(F)F)c2)C(C)(C)C)n1 [Compound A221] | 144 |
| Cc1ncoc1-c1c[nH]c([C@@H]2C[C@@H](O)CN2C(=O)[C@@H](NC(=O)COCCCCOc2ccc(-c3ncc(N4C(=S)N(c5ccc(C#N)c(C(F)(F)F)c5F)C(=O)C4(C)C)cc3F)c(C(F)(F)F)c2)C(C)(C)C)n1 [Compound A224] | 75.7 |
| Cc1ncoc1-c1c[nH]c([C@@H]2C[C@@H](O)CN2C(=O)[C@@H](NC(=O)COCCCCOc2ccc(-c3ccc(N4C(=S)N(c5ccc(C#N)c(C(F)(F)F)c5F)C(=O)C4(C)C)cn3)cc2)C(C)(C)C)n1 [Compound A225] | 92.1 |
| CC(C)(C)[C@H](NC(=O)COCCCCOc1ccc(-c2ncc(N3C(=S)N(c4ccc(C#N)c(C(F)(F)F)c4F)C(=O)C3(C)C)cc2F)c(C(F)(F)F)c1)C(=O)N1C[C@H](O)C[C@H]1c1nc(-c2cncnc2)c[nH]1 [Compound A227] | 24.8 |
| CC(C)(C)[C@H](NC(=O)COCCCCOc1ccc(-c2ccc(N3C(=S)N(c4ccc(C#N)c(C(F)(F)F)c4F)C(=O)C3(C)C)cn2)cc1)C(=O)N1C[C@H](O)C[C@H]1c1nc(-c2cncnc2)c[nH]1 [Compound A228] | 107 |
| Cn1cncc1-c1c[nH]c([C@@H]2C[C@@H](O)CN2C(=O)[C@@H](NC(=O)COCCCCOc2ccc(-c3ccc(N4C(=S)N(c5ccc(C#N)c(C(F)(F)F)c5F)C(=O)C4(C)C)cn3)cc2)C(C)(C)C)n1 [Compound A232] | 41.3 |
| Cn1cncc1-c1c[nH]c([C@@H]2C[C@@H](O)CN2C(=O)[C@@H](NC(=O)COCCCCOc2ccc(-c3ncc(N4C(=S)N(c5ccc(C#N)c(C(F)(F)F)c5F)C(=O)C4(C)C)cc3F)c(C(F)(F)F)c2)C(C)(C)C)n1 [Compound A233] | 194 |
| CNC(=O)c1ccc(-c2c[nH]c([C@@H]3C[C@@H](O)CN3C(=O)[C@@H](NC(=O)COCCCCOc3ccc(-c4ccc(N5C(=S)N(c6ccc(C#N)c(C(F)(F)F)c6F)C(=O)C5(C)C)cn4)cc3)C(C)(C)C)n2)cc1 [Compound A234] | 26.1 |
| CNC(=O)c1ccc(-c2c[nH]c([C@@H]3C[C@@H](O)CN3C(=O)[C@@H](NC(=O)COCCCCOc3ccc(-c4ncc(N5C(=S)N(c6ccc(C#N)c(C(F)(F)F)c6F)C(=O)C5(C)C)cc4F)c(C(F)(F)F)c3)C(C)(C)C)n2)cc1 [Compound A235] | 125 |
| Cc1ncsc1-c1ccc(CNC(=O)[C@@H]2C[C@@H](O)CN2C(=O)[C@@H](NC(=O)Cc2ccc(C(=O)Nc3ccc(-c4ccc(N5C(=S)N(c6ccc(C#N)c(C(F)(F)F)c6F)C(=O)C5(C)C)cn4)cc3)cc2)C(C)(C)C)cc1 [Compound A240] | 264 |
| Cc1ncsc1-c1ccc(CNC(=O)[C@@H]2C[C@@H](O)CN2C(=O)[C@@H](NC(=O)c2ccc(C(F)(F)C(=O)Nc3ccc(-c4ccc(N5C(=S)N(c6ccc(C#N)c(C(F)(F)F)c6F)C(=O)C5(C)C)cn4)cc3)cc2)C(C)(C)C)cc1 [Compound A241] | 807 |
| Cc1ncsc1-c1ccc(CNC(=O)[C@@H]2C[C@@H](O)CN2C(=O)[C@@H](NC(=O)c2ccc(CC(=O)Nc3ccc(-c4ccc(N5C(=S)N(c6ccc(C#N)c(C(F)(F)F)c6F)C(=O)C5(C)C)cn4)cc3)cc2)C(C)(C)C)cc1 [Compound A244] | 173 |
| Cc1ncsc1-c1ccc(CNC(=O)[C@@H]2C[C@@H](O)CN2C(=O)[C@@H](NC(=O)COCCCOCCCCCOc2ccc(N3C(=S)N(c4ccc(C#N)c(C(F)(F)F)c4F)C(=O)C3(C)C)cn2)C(C)(C)C)cc1 [Compound A247] | 75.5 |
| Cc1ncsc1-c1ccc(CNC(=O)[C@@H]2C[C@@H](O)CN2C(=O)[C@@H](NC(=O)COCCCOCCCCOc2ccc(N3C(=S)N(c4ccc(C#N)c(C(F)(F)F)c4F)C(=O)C3(C)C)cn2)C(C)(C)C)cc1 [Compound A248] | 48.8 |
| Cc1ncsc1-c1ccc(CNC(=O)[C@@H]2C[C@@H](O)CN2C(=O)[C@@H](NC(=O)CCc2ccc(C(=O)Nc3ccc(-c4ccc(N5C(=S)N(c6ccc(C#N)c(C(F)(F)F)c6F)C(=O)C5(C)C)cn4)cc3)cc2)C(C)(C)C)cc1 [Compound A252] | 95.9 |
| Cc1ncsc1-c1ccc(CNC(=O)[C@@H]2C[C@@H](O)CN2C(=O)[C@@H](NC(=O)COCCOCCCCOc2ccc(N3C(=S)N(c4ccc(C#N)c(C(F)(F)F)c4F)C(=O)C3(C)C)cn2)C(C)(C)C)cc1 [Compound A254] | 52.5 |
| Cc1ncsc1-c1ccc(CNC(=O)[C@@H]2C[C@@H](O)CN2C(=O)[C@@H](NC(=O)Cc2ccc(C(=O)Nc3ccc(-c4ncc(N5C(=S)N(c6ccc(C#N)c(C(F)(F)F)c6F)C(=O)C5(C)C)cc4F)c(C(F)(F)F)c3)cc2)C(C)(C)C)cc1 [Compound A256] | 119 |
| Cc1ncsc1-c1ccc(CNC(=O)[C@@H]2C[C@@H](O)CN2C(=O)[C@@H](NC(=O)COc2ncc(N3C(=S)N(c4ccc(C#N)c(C(F)(F)F)c4F)C(=O)C3(C)C)cc2F)C(C)(C)C)cc1 [Compound A264] | 870 |
| Cc1ncsc1-c1ccc(CNC(=O)[C@@H]2C[C@@H](O)CN2C(=O)[C@@H](NC(=O)COCCOCCOc2ncc(N3C(=S)N(c4ccc(C#N)c(C(F)(F)F)c4F)C(=O)C3(C)C)cc2F)C(C)(C)C)cc1 [Compound A265] | 381 |
| Cc1ncsc1-c1ccc(CNC(=O)[C@@H]2C[C@@H](O)CN2C(=O)[C@@H](NC(=O)COCCOCCCOc2ncc(N3C(=S)N(c4ccc(C#N)c(C(F)(F)F)c4F)C(=O)C3(C)C)cc2F)C(C)(C)C)cc1 [Compound A267] | 119 |
| Cc1ncsc1-c1ccc(CNC(=O)[C@@H]2C[C@@H](O)CN2C(=O)[C@@H](NC(=O)COCCOc2ncc(N3C(=S)N(c4ccc(C#N)c(C(F)(F)F)c4F)C(=O)C3(C)C)cc2C(F)(F)F)C(C)(C)C)cc1 [Compound A269] | 766 |
